Drawing on patent US11084814B2, “Pyrido[3, 4-d]pyrimidine derivative and pharmaceutically acceptable salt thereof” (Teijin Pharma Limited, priority 2016, dated 2021), this text covers neuronal death and IC50 for twelve compounds.

Structures are written as SMILES. Where only a bound is given, the exact number is not on record here.

The test system of experiment [1] is neuronal death caused by local ischemia. The settings on record: rat cerebral infarction model; cited from earlier work.
The target of experiment [2] is T1, CDK2/cyclin A2 (Homo sapiens, UniProt P24941).
T1 construct: purchased Carna Biosciences, Inc. QS S Assist CDK2/Cyclin A2_FP Kit
In words: Human CDK2/cyclin A2 inhibitory activity (QS S Assist CDK2/Cyclin A2_FP Kit, IMAP fluorescent polarization). The class given is biochemical. As to conditions: read-out: CDK2 Activity symbol. The method, boiled down:
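Kit CDK2/cyclin A2 (2.5 ng/well) was reacted with kit ATP/substrate/metal in 20 mM HEPES pH 7.4, 0.01% Tween 20 and 2 mM DTT for 60 min at room temperature. IMAP binding reagent was added for 30 min, then fluorescence polarization was read at 485/535 nm. IC50 came from dose-response fitting of percent inhibition.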

The target of experiment [3] is T2, CDK4/cyclin D3 (Homo sapiens, UniProt P11802).
T2 construct: purchased Carna Biosciences, Inc. QS S Assist CDK4/Cyclin D3_FP Kit
In words: Human CDK4/cyclin D3 inhibitory activity (QS S Assist CDK4/Cyclin D3_FP Kit, IMAP fluorescent polarization). The class given is biochemical. The settings on record: read-out: CDK4 Activity symbol. Put shortly:
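Kinase reactions used kit CDK4/cyclin D3 at 12.5–25 ng/well with the kit ATP/substrate/metal mix in 20 mM HEPES (pH 7.4), 0.01% Tween20 and 2 mM DTT, run 45 min at room temperature. Phosphorylation was detected by IMAP fluorescence polarization (ex 485/em 535 nm) after 30 min binding in the dark. IC50 was fitted from percent inhibition against DMSO controls with and without enzyme.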

T2 sequence (P11802 whole entry): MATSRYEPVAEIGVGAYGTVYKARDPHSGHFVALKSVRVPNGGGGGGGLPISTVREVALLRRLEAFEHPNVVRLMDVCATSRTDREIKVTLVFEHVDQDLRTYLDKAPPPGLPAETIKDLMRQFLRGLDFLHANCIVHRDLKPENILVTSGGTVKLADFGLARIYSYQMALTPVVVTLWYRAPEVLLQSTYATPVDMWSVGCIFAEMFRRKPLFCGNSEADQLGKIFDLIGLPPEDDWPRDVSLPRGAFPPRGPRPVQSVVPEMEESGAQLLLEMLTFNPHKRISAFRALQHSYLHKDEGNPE
T2 sequence (P30281 whole entry partner): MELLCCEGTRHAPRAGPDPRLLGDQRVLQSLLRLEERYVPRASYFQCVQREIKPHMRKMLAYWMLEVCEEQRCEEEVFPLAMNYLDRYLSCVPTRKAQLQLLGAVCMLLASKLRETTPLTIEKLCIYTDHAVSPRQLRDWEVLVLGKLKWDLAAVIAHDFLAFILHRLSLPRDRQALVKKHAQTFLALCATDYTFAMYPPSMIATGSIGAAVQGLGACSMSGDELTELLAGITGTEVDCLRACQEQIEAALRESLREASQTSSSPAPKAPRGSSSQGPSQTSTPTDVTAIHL

Take `CN1CC[C@H](c2c(O)cc(O)c3c(=O)cc(-c4ccccc4Cl)oc23)[C@H](O)C1` [flavopiridol]: the neuronal death entry in experiment [1] is given as “reduced”.
Regarding `C[C@@H](O)c1cc2cnc(Nc3ccc(N4CCCNCC4=O)cn3)nc2c(N2CCCCC2)n1` [Compound 127], the IC50 was at least 100 nM in experiment [2] and below 10 nM in experiment [3].
As for `Cc1nc(Nc2ncc3cc([C@@H](C)O)nc(N4CCCCC4)c3n2)ccc1N1CCN(C2CN(CCO)C2)CC1` [Compound 328], the IC50 is at least 100 nM in experiment [2] and below 10 nM in experiment [3].
The matching figures for `C[C@@H](O)c1cc2cnc(Nc3ccc(CN4CCN(CCO)CC4)cn3)nc2c(N2CCCC2(C)C)n1` [Compound 75]: 10 to 100 nM and below 10 nM.
The matching figures for `C[C@@H](O)c1cc2cnc(Nc3ccc4c(n3)CCN(C(=O)CN3CCCC3)C4)nc2c(N2C3CCC2CC3)n1` [Compound 228]: at least 100 nM and below 10 nM.
The like results for `C[C@@H](O)c1cc2cnc(Nc3ccc4c(n3)CCN(C(=O)CN3CCC3)C4)nc2c(N2CCCCC2)n1` [Compound 270] were, in that order, at least 100 nM and below 10 nM.
Consider `C[C@@H](O)c1cc2cnc(Nc3ccc4c(n3)CCN(C(=O)C3CCNCC3)C4)nc2c(N2CCCCC2)n1` [Compound 147], for which the IC50 in experiment [2] is at least 100 nM; in experiment [3] it was below 10 nM.
The matching figures for `C[C@@H](O)c1cc2cnc(Nc3ccc(CN4CCN(C)CC4)cn3)nc2c(N2CCCC2(C)C)n1` [Compound 173]: 10 to 100 nM and below 10 nM.
Turning to `C[C@@H](O)c1cc2cnc(Nc3ccc(CN4CCN(CCO)CC4)cn3)nc2c(C2=CCCCC2)n1` [Compound 156], the IC50 in experiment [2] is at least 100 nM; in experiment [3], below 10 nM.
As for `C[C@@H](O)c1cc2cnc(Nc3ccc4c(n3)CCN(C(=O)Cn3nccn3)C4)nc2c(N2CCCCC2)n1` [Compound 337], the values for the IC50 in experiment [2] and in experiment [3] were at least 100 nM and 10 to 100 nM, respectively.
On to `C[C@@H](O)c1cc2cnc(Nc3ccc4c(n3)CCN(S(=O)(=O)C3CCNCC3)C4)nc2c(N2CCCCC2)n1` [Compound 163, (R)-1-(8-(piperidin-1-yl)-2-((6-(piperidin-4-ylsulfonyl)-5,6,7,8-tetrahydro-1,6-naphthyridin-2-yl)amino)pyrido[3,4-d]pyrimidin-6-yl)ethanol], for which the figures for the IC50 in experiment [2] and in experiment [3] were at least 100 nM and below 10 nM, respectively.
Turning to `C[C@@H](O)c1cc2cnc(Nc3ccc(N4CCN(C)CC4)nn3)nc2c(N2CCC(F)CC2)n1` [Compound 124], the IC50 was at least 100 nM in experiment [2] and below 10 nM in experiment [3].
